Results taken from ChEMBL document CHEMBL3526086, “Identification of the oxidative and conjugative enzymes involved in the biotransformation of brivanib” (Drug Metab Dispos, 2012).

What was measured:
Type in all cases: ADME
Cytochrome P450 2A6 [1] = target: T1, Cytochrome P450 2A6 (Homo sapiens, UniProt P11509); experiment: Drug metabolism in human liver microsomes assessed as 2 uM tranylcypromine-mediated inhibition of CYP2A6-mediated (R)-1-(4-(4-fluoro-2-(hydroxymethyl)-1H-indol-5-yloxy)-5-methylpyrrolo[1,2-f][1,2,4]triazin-6-yloxy)propan-2-ol formation at 2 and 20 uM for 30 mins by LC/MS analysis; conditions: 0.5 h
T1 sequence (P11509 whole entry): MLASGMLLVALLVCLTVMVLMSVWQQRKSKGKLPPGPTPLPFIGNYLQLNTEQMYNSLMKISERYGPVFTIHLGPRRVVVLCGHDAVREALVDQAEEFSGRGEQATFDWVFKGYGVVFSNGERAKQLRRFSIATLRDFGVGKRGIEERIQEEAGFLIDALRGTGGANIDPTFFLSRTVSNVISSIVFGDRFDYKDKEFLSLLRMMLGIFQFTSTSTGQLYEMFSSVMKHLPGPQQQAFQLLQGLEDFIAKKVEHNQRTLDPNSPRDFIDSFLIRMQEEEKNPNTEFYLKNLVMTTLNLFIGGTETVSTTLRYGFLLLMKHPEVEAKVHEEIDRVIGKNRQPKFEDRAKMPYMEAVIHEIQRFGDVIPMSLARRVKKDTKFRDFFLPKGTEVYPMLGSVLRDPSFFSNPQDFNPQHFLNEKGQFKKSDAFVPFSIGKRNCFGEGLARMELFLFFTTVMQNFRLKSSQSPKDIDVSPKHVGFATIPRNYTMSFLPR

Cytochrome P450 2B6 [2] = target: T2, Cytochrome P450 2B6 (Homo sapiens, UniProt P20813); experiment: Drug metabolism in human liver microsomes assessed as 50 uM orphenadrine-mediated inhibition of CYP2B6-mediated (R)-1-(4-(4-fluoro-2-(hydroxymethyl)-1H-indol-5-yloxy)-5-methylpyrrolo[1,2-f][1,2,4]triazin-6-yloxy)propan-2-ol formation at 2 and 20 uM for 30 mins by LC/MS analysis; conditions: 0.5 h
T2 sequence (P20813 whole entry): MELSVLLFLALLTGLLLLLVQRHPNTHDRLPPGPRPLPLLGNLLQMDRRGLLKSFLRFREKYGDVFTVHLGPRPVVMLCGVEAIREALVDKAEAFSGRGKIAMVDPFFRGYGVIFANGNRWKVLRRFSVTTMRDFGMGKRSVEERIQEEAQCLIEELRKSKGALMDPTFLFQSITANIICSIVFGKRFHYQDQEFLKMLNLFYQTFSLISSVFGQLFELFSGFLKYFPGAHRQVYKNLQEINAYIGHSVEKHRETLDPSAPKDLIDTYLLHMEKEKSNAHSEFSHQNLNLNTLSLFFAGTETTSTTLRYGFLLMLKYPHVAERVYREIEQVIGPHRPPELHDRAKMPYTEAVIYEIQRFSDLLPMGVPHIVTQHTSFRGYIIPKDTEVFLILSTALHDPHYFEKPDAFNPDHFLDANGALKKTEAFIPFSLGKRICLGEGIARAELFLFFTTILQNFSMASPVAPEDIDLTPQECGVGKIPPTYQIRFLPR

Cytochrome P450 1A2 = target: T3, Cytochrome P450 1A2 (Homo sapiens, UniProt P05177); experiment: Drug metabolism assessed as human CYP1A2-mediated (R)-1-(4-(4-fluoro-2-(hydroxymethyl)-1H-indol-5-yloxy)-5-methylpyrrolo[1,2-f][1,2,4]triazin-6-yloxy)propan-2-ol formation at 2 and 20 uM for 20 mins by LC/MS analysis in presence of NADPH; conditions: recombinant enzyme
T3 sequence (P05177 whole entry): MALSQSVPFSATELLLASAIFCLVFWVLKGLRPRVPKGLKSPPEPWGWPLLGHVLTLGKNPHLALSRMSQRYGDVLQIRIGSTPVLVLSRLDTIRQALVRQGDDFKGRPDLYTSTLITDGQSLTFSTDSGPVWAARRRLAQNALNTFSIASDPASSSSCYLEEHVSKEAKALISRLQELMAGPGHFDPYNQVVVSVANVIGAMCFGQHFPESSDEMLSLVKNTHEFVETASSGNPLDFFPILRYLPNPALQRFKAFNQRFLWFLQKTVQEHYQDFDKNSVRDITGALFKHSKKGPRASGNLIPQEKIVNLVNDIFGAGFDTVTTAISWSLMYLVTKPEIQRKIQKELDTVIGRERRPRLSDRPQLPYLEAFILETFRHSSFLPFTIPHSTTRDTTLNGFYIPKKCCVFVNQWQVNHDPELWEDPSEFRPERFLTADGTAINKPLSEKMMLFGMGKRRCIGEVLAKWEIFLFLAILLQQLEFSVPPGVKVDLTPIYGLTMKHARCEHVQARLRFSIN

Cytochrome P450 3A4 = Cytochrome P450 3A4 (Homo sapiens, UniProt P08684); experiment: Drug metabolism assessed as human CYP3A4-mediated (R)-1-(4-(4-fluoro-2-(hydroxymethyl)-1H-indol-5-yloxy)-5-methylpyrrolo[1,2-f][1,2,4]triazin-6-yloxy)propan-2-ol formation at 2 and 20 uM for 20 mins by LC/MS analysis in presence of NADPH; conditions: recombinant enzyme
Cytochrome P450 2A6 [3] = target: T1, Cytochrome P450 2A6; experiment: Drug metabolism assessed as human CYP2A6-mediated (R)-1-(4-(4-fluoro-2-(hydroxymethyl)-1H-indol-5-yloxy)-5-methylpyrrolo[1,2-f][1,2,4]triazin-6-yloxy)propan-2-ol formation at 2 and 20 uM for 20 mins by LC/MS analysis in presence of NADPH; conditions: recombinant enzyme
Cytochrome P450 1A1 = Cytochrome P450 1A1 (Homo sapiens, UniProt P04798); experiment: Drug metabolism assessed as human CYP1A1-mediated (R)-1-(4-(4-fluoro-2-(hydroxymethyl)-1H-indol-5-yloxy)-5-methylpyrrolo[1,2-f][1,2,4]triazin-6-yloxy)propan-2-ol formation at 2 and 20 uM for 20 mins by LC/MS analysis in presence of NADPH; conditions: recombinant enzyme
[4] = Activity of CYP3A4/CYP1A2 in human liver microsomes assessed as enzyme-mediated (R)-1-(4-(4-fluoro-2-(hydroxymethyl)-1H-indol-5-yloxy)-5-methylpyrrolo[1,2-f][1,2,4]triazin-6-yloxy)propan-2-ol formation per mg protein in presence of NADPH
Sulfotransferase 1A1 = Sulfotransferase 1A1 (Homo sapiens, UniProt P50225); experiment: Drug metabolism assessed as human SULT1A1-mediated (R)-1-(4-(4-fluoro-2-methyl-1H-indol-5-yloxy)-5-methylpyrrolo[1,2-f][1,2,4]triazin-6-yloxy)propane-2-sulfonic acid formation at 2 and 20 uM for 30 mins by LC/MS analysis in presence of PAPS; conditions: 0.5 h
Sulfotransferase 1B1 = Sulfotransferase 1B1 (Homo sapiens, UniProt O43704); experiment: Drug metabolism assessed as human SULT1B1-mediated (R)-1-(4-(4-fluoro-2-methyl-1H-indol-5-yloxy)-5-methylpyrrolo[1,2-f][1,2,4]triazin-6-yloxy)propane-2-sulfonic acid formation at 2 and 20 uM for 30 mins by LC/MS analysis in presence of PAPS; conditions: 0.5 h
Cytochrome P450 2A6 [5] = target: T1, Cytochrome P450 2A6; experiment: Drug metabolism in human liver microsomes assessed as monoclonal antibody-mediated inhibition of CYP2A6-mediated (R)-1-(4-(4-fluoro-2-(hydroxymethyl)-1H-indol-5-yloxy)-5-methylpyrrolo[1,2-f][1,2,4]triazin-6-yloxy)propan-2-ol formation at 2 and 20 uM for 30 mins by LC/MS analysis; conditions: 0.5 h
Cytochrome P450 2B6 [6] = target: T2, Cytochrome P450 2B6; experiment: Drug metabolism in human liver microsomes assessed as monoclonal antibody-mediated inhibition of CYP2B6-mediated (R)-1-(4-(4-fluoro-2-(hydroxymethyl)-1H-indol-5-yloxy)-5-methylpyrrolo[1,2-f][1,2,4]triazin-6-yloxy)propan-2-ol formation at 2 and 20 uM for 30 mins by LC/MS analysis; conditions: 0.5 h

Cytochrome P450 1A1, sequence (P04798 whole entry): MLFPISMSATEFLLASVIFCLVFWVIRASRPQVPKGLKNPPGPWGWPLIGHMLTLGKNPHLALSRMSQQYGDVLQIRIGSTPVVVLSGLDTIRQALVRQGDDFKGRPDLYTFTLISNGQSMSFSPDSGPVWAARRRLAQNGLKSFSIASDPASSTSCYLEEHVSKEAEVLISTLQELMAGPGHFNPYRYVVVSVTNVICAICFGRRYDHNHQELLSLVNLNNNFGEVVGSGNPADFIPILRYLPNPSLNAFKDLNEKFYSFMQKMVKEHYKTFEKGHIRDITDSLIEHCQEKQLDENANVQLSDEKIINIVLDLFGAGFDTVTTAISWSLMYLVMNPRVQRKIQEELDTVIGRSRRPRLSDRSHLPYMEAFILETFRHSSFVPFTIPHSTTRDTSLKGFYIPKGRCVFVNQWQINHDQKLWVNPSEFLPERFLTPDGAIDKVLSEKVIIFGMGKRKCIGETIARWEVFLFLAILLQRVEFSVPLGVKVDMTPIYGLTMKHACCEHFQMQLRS
Sulfotransferase 1A1, sequence (P50225 whole entry): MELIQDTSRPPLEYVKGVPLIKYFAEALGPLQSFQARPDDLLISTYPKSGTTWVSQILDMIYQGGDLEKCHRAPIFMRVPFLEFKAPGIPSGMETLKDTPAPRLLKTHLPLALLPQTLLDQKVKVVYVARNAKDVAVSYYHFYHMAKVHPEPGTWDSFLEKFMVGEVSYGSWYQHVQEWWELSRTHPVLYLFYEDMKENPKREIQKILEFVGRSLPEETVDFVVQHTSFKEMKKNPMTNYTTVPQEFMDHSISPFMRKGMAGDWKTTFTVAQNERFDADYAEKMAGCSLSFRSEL
Sulfotransferase 1B1, sequence (O43704 whole entry): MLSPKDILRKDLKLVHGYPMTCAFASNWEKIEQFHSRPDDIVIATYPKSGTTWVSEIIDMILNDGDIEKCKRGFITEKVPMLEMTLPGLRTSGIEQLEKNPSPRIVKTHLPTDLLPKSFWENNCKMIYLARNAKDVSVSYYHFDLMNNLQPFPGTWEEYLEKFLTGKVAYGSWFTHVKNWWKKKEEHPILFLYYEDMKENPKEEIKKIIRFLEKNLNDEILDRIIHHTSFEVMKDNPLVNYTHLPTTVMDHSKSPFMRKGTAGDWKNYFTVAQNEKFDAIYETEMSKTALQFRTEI
Cytochrome P450 3A4, sequence (P08684 whole entry): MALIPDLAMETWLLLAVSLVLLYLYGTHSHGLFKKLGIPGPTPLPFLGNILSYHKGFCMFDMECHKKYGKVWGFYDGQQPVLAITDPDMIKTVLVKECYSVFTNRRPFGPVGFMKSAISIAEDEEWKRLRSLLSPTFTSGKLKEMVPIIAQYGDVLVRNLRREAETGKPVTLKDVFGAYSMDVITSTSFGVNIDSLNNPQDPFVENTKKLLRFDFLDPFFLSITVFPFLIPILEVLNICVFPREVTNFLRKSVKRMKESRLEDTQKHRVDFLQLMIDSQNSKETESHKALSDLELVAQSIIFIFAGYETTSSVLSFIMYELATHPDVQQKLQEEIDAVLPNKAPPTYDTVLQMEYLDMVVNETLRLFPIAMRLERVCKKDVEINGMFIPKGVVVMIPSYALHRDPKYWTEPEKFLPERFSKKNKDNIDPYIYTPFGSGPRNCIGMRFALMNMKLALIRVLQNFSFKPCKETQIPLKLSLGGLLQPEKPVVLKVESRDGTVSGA

Drug metabolism (Cytochrome P450 2A6 [1]): metabolite_detected | Drug metabolism (Cytochrome P450 2B6 [2]): metabolite_detected | Drug metabolism (Cytochrome P450 1A2): metabolite_detected | Drug metabolism (Cytochrome P450 3A4): metabolite_detected | Drug metabolism (Cytochrome P450 2A6 [3]): metabolite_detected | Drug metabolism (Cytochrome P450 1A1): metabolite_detected | Vmax [4]: 89.1 pmol/min | Drug metabolism (Sulfotransferase 1A1): metabolite_detected | Drug metabolism (Sulfotransferase 1B1): metabolite_detected | Drug metabolism (Cytochrome P450 2A6 [5]): metabolite_detected | Drug metabolism (Cytochrome P450 2B6 [6]): metabolite_detected
SMILES: Cc1cc2c(F)c(Oc3ncnn4cc(OC[C@@H](C)O)c(C)c34)ccc2[nH]1 [BRIVANIB]
